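Dose response: 5 concentrations. Exposure: 48 h. Format: 96-well plates. Endpoint: linear interpolation; highest concentration if not reached. At the GI50, growth is halved.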 The source made the active and inactive calls. No stated cut-off is given here; in the data, active = GI50 up to about 1.1 µM and inactive = higher. Residues, ends and D or L forms follow the SMILES beside them. *: point of attachment. Fmoc = O=C(OCC1c2ccccc2-c2ccccc21)*; Boc = CC(C)(C)OC(=O)*
Key:
Assay in all cases: NCI tumour cell line growth inhibition, 48 h
BT-549 = tested on: BT-549
CCRF-CEM = tested on: CCRF-CEM
EKVX = tested on: EKVX
HL-60 = tested on: HL-60
HOP-62 = tested on: HOP-62
Hs-578T = tested on: Hs-578T
LOX IMVI = tested on: LOX IMVI
M14 = tested on: M14
MDA-MB-231 = tested on: MDA-MB-231
MDA-N = tested on: MDA-N
NCI-H460 = tested on: NCI-H460
NCI/ADR-RES = tested on: NCI/ADR-RES
RXF 393 = tested on: RXF 393
SF-539 = tested on: SF-539
SK-MEL-28 = tested on: SK-MEL-28
SK-OV-3 = tested on: SK-OV-3
SN12C = tested on: SN12C
SNB-19 = tested on: SNB-19
U-251 = tested on: U-251
UACC-62 = tested on: UACC-62

Measured: GI50

O=C(O)CSCc1cccc2ccccc12
inactive: BT-549 > 100 µM | CCRF-CEM > 100 µM | EKVX 19.4 µM | HL-60 > 100 µM | HOP-62 > 100 µM | Hs-578T > 100 µM | LOX IMVI > 100 µM | M14 > 100 µM | MDA-MB-231 > 100 µM | MDA-N > 100 µM | NCI-H460 > 100 µM | NCI/ADR-RES > 100 µM | RXF 393 > 100 µM | SF-539 > 100 µM | SK-MEL-28 > 100 µM | SK-OV-3 > 100 µM | SN12C > 100 µM | SNB-19 > 100 µM | U-251 > 100 µM | UACC-62 > 100 µM

C[C@]12CC[C@H]3[C@@H](CCC4=CC(=O)CC[C@@H]43)[C@@H]1CC[C@]2(O)C(N)=O
inactive: BT-549 > 100 µM | CCRF-CEM > 100 µM | EKVX > 100 µM | HL-60 > 100 µM | HOP-62 > 100 µM | Hs-578T > 100 µM | LOX IMVI > 100 µM | M14 > 100 µM | MDA-MB-231 > 100 µM | MDA-N > 100 µM | NCI-H460 > 100 µM | NCI/ADR-RES > 100 µM | RXF 393 > 100 µM | SF-539 > 100 µM | SK-MEL-28 > 100 µM | SK-OV-3 > 100 µM | SN12C > 100 µM | SNB-19 > 100 µM | U-251 > 100 µM | UACC-62 > 100 µM

CC1=NN(C(=O)CC(=O)Nc2ccc(Cl)cc2)C(=O)C1/N=N\c1ccc(S(=O)(=O)c2ccc(/N=N/C3C(=O)N(C(=O)CC(=O)Nc4ccc(Cl)cc4)N=C3C)cc2)cc1 (stereo not given)
inactive: BT-549 > 100 µM | CCRF-CEM > 100 µM | EKVX > 100 µM | HL-60 > 100 µM | HOP-62 54.5 µM | Hs-578T > 100 µM | LOX IMVI > 100 µM | M14 65.2 µM | MDA-MB-231 51.9 µM | MDA-N > 100 µM | NCI-H460 > 100 µM | NCI/ADR-RES > 100 µM | RXF 393 41.5 µM | SF-539 > 100 µM | SK-MEL-28 > 100 µM | SK-OV-3 > 100 µM | SN12C > 100 µM | SNB-19 61.5 µM | U-251 22.4 µM | UACC-62 > 100 µM

CNC1C(OC2C(OC3C(O)C(O)C(O)C(O)C3O)OC(C)C2(O)CO)OC(CO)C(O)C1O.N=C(N)N.NC(=O)O (stereo not given)
inactive: BT-549 > 100 µM | CCRF-CEM > 100 µM | EKVX > 100 µM | HL-60 > 100 µM | HOP-62 > 100 µM | Hs-578T > 100 µM | LOX IMVI > 100 µM | M14 > 100 µM | MDA-MB-231 > 100 µM | MDA-N > 100 µM | NCI-H460 > 100 µM | NCI/ADR-RES > 100 µM | RXF 393 > 100 µM | SF-539 > 100 µM | SK-MEL-28 > 100 µM | SK-OV-3 > 100 µM | SN12C > 100 µM | SNB-19 > 100 µM | U-251 > 100 µM | UACC-62 > 100 µM

CC(C)(C)OC(=O)NCCCCC(NC(=O)C(Cc1c[nH]c2ccccc12)NC(=O)OCC1c2ccccc2-c2ccccc21)C(=O)N1CCCC1C(=O)NCC(N)=O (stereo not given) (Fmoc-WK(Boc)PG-NH2; configuration not given here)
inactive: BT-549 > 100 µM | CCRF-CEM > 100 µM | EKVX > 100 µM | HL-60 > 100 µM | HOP-62 > 100 µM | Hs-578T > 100 µM | LOX IMVI > 100 µM | M14 60.5 µM | MDA-MB-231 42.5 µM | MDA-N > 100 µM | NCI-H460 > 100 µM | NCI/ADR-RES > 100 µM | RXF 393 > 100 µM | SF-539 > 100 µM | SK-MEL-28 > 100 µM | SK-OV-3 1.59 µM | SN12C > 100 µM | SNB-19 > 100 µM | U-251 > 100 µM | UACC-62 > 100 µM

— ChEMBL document CHEMBL1201862, “PubChem BioAssay data set” (2004)
